Measurements published in patent EP3797781A1, “USE OF EC-7072 AND SYNERGIC COMPOSITIONS THEREOF IN TREATMENT OF CHRONIC LYMPHOCYTIC LEUKEMIA” (priority 2019, dated 2021).

Legend:
Type in all cases: cell-based, human
HK-2 cells = test: Cell death of HK-2 cells by PI staining; details: 200 nM, 24 hours; n = 3
Protocol: Effectiveness of EC-7072 against different B-cell malignancies was assessed by; • (i) incubating primary fibroblasts from healthy donors (n = 4) and HK-2 cells from healthy human adult kidney (n = 3) following treatment with MTA (200 nM) or EC-7072 (200 nM) for 24 hours. Cell death was evaluated by PI staining to obtain the percentages corresponding to the [PI^+] subset (Figure 5A) and the mean percentage of [PI^+] cells (Figure 5B); • (ii) treating MEC-1, GRANTA-519, Z-138, JVM-2, CA-46, Ramos, Raji and U266 cell lines (n = 3) following treatment with EC-7072 (500 nM) followed by incubation for 24 hours. Cell viability was assessed by DiOC6(3)/PI staining and normalized to control (DMSO) condition to obtain mean percentage of viable [DiOC6(3)^+] cells (Figure 5C).

active caspase-3 = test: Caspase-3 activity assay in leukemia cells (flow cytometry); details: 0 - 400 nM, 24 hours; leukemia cells in PBMCs from patients with CLL (n = 6)
Protocol: Intracellular levels of activated caspase-3 were measured by using CaspGLOW™ Fluorescein Active Caspase-3 Staining Kit (Invitrogen). In brief, EC-7072 (200 nM) or DMSO-treated PBMCs from patients with CLL were incubated with FITC-DEVD-fmk for 30 minutes at 37 °c and fluorescence was next analyzed by flow cytometry in leukemia cells. For some experiments, cells were pretreated for 2 hours with the indicated doses of the broad-spectrum caspase inhibitor Z-VAD-fmk.
The induction of caspase-dependent apoptosis on primary CLL cells by EC-7072 was assessed by: • (i) incubating PBMCs isolated from patients with CLL (n = 6) following treatment with increasing concentrations of EC-7072 (0 - 400 nM) for 24 hours. Apoptosis of leukemia cells was evaluated by cytofluorometric assessment of Annexin V/PI staining to obtain percentages of apoptotic [Annexin V^+ PI^-] and dead [PI^+] cells (Figure 3A); • (ii) incubating PBMCs and T cells isolated from patients with CLL (n = 3) following treatment with EC-7072 (200 nM) for 24 hours. T cell apoptosis was evaluated by cytofluorometric assessment of Annexin V/PI staining to obtain percentages of viable [Annexin V-], apoptotic [Annexin V^+ PI^-] and dead [PI^+] cells (Figure 3B); • (iii) incubating PBMCs isolated from patients with CLL (n = 6) following treatment with EC-7072 (0 - 400 nM) for 24 hours. […]

leukemia cells = test: Apoptosis of leukemia cells by Annexin V/PI staining; details: 0 - 400 nM, 24 hours; PBMCs from patients with CLL (n = 6)
Protocol: Cell viability and apoptosis were evaluated by double-staining with the mitochondrial inner transmembrane potential (ΔΨm)-sensitive dye DiOC6(3) (3,3'-dihexyloxacarbocyanine iodide; Sigma-Aldrich) and the exclusion dye propidium iodide (PI; Immunostep), allowing identification of apoptotic [DiOC6(3)^low PI^-] and dead [PI^+] cells as per Proc. Natl. Acad. Sci. U.S.A. (2014) 111(8):3020-3025 and Methods Mol. Biol. (2016) 1419:1-16. Briefly, PBMCs were resuspended in culture medium containing 20 nM DiOC6(3) and incubated for 30 minutes at 37 °C. Then, PI (1 µg/mL) was added and cells were further incubated for 10 minutes at room temperature (RT). Cells were analyzed by flow cytometry considering DiOC6(3)^+PI^- cells as viable. In some experiments, apoptosis was evaluated by staining with Annexin V/PI. […]
The induction of caspase-dependent apoptosis on primary CLL cells by EC-7072 was assessed by: • (i) incubating PBMCs isolated from patients with CLL (n = 6) following treatment with increasing concentrations of EC-7072 (0 - 400 nM) for 24 hours. Apoptosis of leukemia cells was evaluated by cytofluorometric assessment of Annexin V/PI staining to obtain percentages of apoptotic [Annexin V^+ PI^-] and dead [PI^+] cells (Figure 3A); • (ii) incubating PBMCs and T cells isolated from patients with CLL (n = 3) following treatment with EC-7072 (200 nM) for 24 hours. […]

## CO[C@@H]([C@@H]1Cc2cc3cc(O[C@H]4C[C@@H](O[C@H]5C[C@@H](O)[C@H](O)[C@@H](C)O5)[C@H](O)[C@@H](C)O4)c(C)c(O)c3c(O)c2C(=O)[C@H]1O[C@H]1C[C@@H](O[C@H]2C[C@@H](O[C@H]3C[C@](C)(O)[C@H](O)[C@@H](C)O3)[C@@H](O)[C@@H](C)O2)[C@H](O)[C@@H](C)O1)[C@@H](O)C(C)=O [EC-7072, mithramycin SK]
HK-2 cells
  viability of HK-2 cells (PI^+ cells): did not markedly affect the viability
Active caspase-3
  intracellular levels of active caspase-3: dose-dependent increase
Leukemia cells
  apoptosis of leukemia cells (Annexin V/PI): significantly induces CLL cell apoptosis
